The subject of data set [1] is CD34+ cells mobilized from bone marrow into peripheral blood. Briefly: First working embodiment: single-dose plerixafor mobilization in a deceased donor, apheresis, then CD34+ isolation.
Data set [2] deals with PB HSC's / CD34+ cells. The following applies: cited from earlier work.

On to `c1cc(CN2CCCNCCNCCCNCC2)ccc1CN1CCCNCCNCCCNCC1` [plerixafor, 1-{[4-(1,4,8,11-tetrazacyclotetradec-1-ylmethyl)phenyl]methyl}-1,4,8,11 tetrazacyclotetradecane], for which, in data set [1] (Leukopak Product), the “% CD34+” value came out at 0.87%, the “% viability” value stood at 99.5%, the TNC was 1.49E+10 and the “Total CD34+ (= % CD34+/100 x TNC)” value was found to be 1.29E+08. This compound also gave a TNC/mL in data set [1] (Leukopak Product, single sc dose plerixafor, apheresis started 8 hours after dose, 24 liters processed) of 3.23E+07. Moreover, in data set [1] (Positive (CD34) fraction), the “% CD34+” value worked out at 95%, the “% viability” value amounted to 95%, the TNC is 1.22E+08 and the TNC/mL turned out to be 2.60E+06. In addition, in data set [1] (Positive (CD34) fraction), the “Total CD34+ (= % CD34+/100 x TNC)” value is given as 1.16E+08. Also, in data set [1] (deceased donor, single dose plerixafor), the “whole body CT scans, routine hematology and serum chemistry panels before and after the procedure” value is “remained stable”. For the same compound, in data set [1] (deceased donor, single sc dose plerixafor (0.24 kg/mg), 8 hours apheresis), the “tolerability of the procedure (vital signs, oxygenation, urine output)” value is “tolerated the procedure well”. The “viable CD34+ cells isolated” value in data set [1] (first working embodiment) is “more than 1.0×10^8 cells”. In addition, the “purity of isolated CD34+ cells” value in data set [1] (first working embodiment, after isolation) is recorded as 90-95%. The “peak onset of action” value in data set [2] (after administration) is 6 to 10 h. The “fraction of healthy donors who fail to produce desired numbers of CD34+ cells/kg” value in data set [2] (single agent, standard dose 0.24 mg/kg, subcutaneously or intravenously) is listed as “⅓”. The “tolerability / organ toxicity” value in data set [2] (single subcutaneous dose) is “well tolerated with no major organ toxicity”.

Source of the values: patent US12559720B2, “Mobilization and collection of peripheral blood hematopoietic stem cells and lymphocytes from deceased donors” (The Regents of the University of California, priority 2018, dated 2026).
